Values quoted from earlier work as cited in patent US20260284079A1, “LIPID PRODRUGS OF ALLOPR[…] USES THEREOF” (Seaport Therapeutics, Inc., priority 2023, published 2026).

How the values were obtained:
[1] = due to extensive first-pass metabolism; cited from earlier work
salivary cortisol levels = details: literature; cited from earlier work

Row | SMILES | oral bioavailability [1] | blunting of increase in salivary cortisol levels following a TSST (salivary cortisol levels)
1 | CC(=O)[C@H]1CC[C@H]2[C@@H]3CC[C@H]4C[C@H](O)CC[C@]4(C)[C@H]3CC[C@]12C [allopregnanolone] | less than 5% | 
2 | CCNC1=Nc2ccc(Cl)cc2C(C)(c2ccccc2)O1 (centres unmarked) [Etifoxine] |  | does not blunt an increase in salivary cortisol levels
